# Laboratory results published in PMC4109680, “Identification and Preclinical Pharmacology of the γ-Secretase Modulator BMS-869780” (International Journal of Alzheimer's Disease, 2014).
# Where two headings read alike, the source gives them in different places.
# Test system: brain Aβ1-42, brain Aβ1-40, plasma Aβ1-40
# Experiment: Rat intraperitoneal dose response, brain and plasma Aβ 5 hours after dosing
# Assay type: in vivo
# Conditions: for IC50: Rattus norvegicus
# Method: IC50 determinations for Aβ1-42 and Aβ1-40 in H4-APPsw cultures in 384-well format were determined using homogeneous time-resolved fluorescence immunoassays as previously described. The principle of these assays is illustrated in Figures 1(c) and 1(d). In other experiments using H4-APPsw cultures, Aβ was quantified by ELISA; for Aβ1-42 the combination of monoclonal antibodies was 26D6 and 565-HRP; for Aβ1-40 it was TSD and 26D6-HRP, and for Aβ1-x it was 4G8 and 26D6-HRP. In some experiments a novel 4-plex Aβ electrochemiluminescence immunoassay was used (Mesoscale Discovery catalog number N45ZA-1). Briefly, the 4-plex was carried out in 96-well format, with 4 separate spots of capture antibodies in each well. The 96-well plates were prepared by the manufacturer, with spots of monoclonal antibodies for Aβ1-42, Aβ1-40, and Aβ1-38, and an additional fourth spot of streptavidin in each well. Plates were initially incubated with blocking buffer (5% BSA in phosphate buffered saline, 200 μL per well) for 2 hours at ambient temperature and then with D2A6H-biotin conjugate (50 ng/mL in 1% BSA, phosphate buffered saline, 25 μL per well) for 1 hour. Plates were then rinsed with phosphate buffered saline before addition of experimental samples for determination of Aβ1-42, Aβ1-40, Aβ1-38, and Aβ1-37 levels, following the manufacturer's instructions as for the Aβ 3-plex kit (catalog number K15148E-1). Rat brain extracts for use in the 4-plex assay were made in 0.2% diethylamine, as previously described. For detection of rat Aβ peptides in the 4-plex (Figure 5), 252Q6-sulfo-tag conjugate was used, and for detection of human Aβ peptides from cell cultures 6E10-sulfo-tag conjugate was used. For Aβ in transiently transfected PS1/PS2 dKO fibroblasts, Aβ1-42 was quantified using an ELISA kit (WACO), and Aβ1-40 was quantified by ELISA as described above for H4-APPsw cultures. For triple transgenic mice (3xTg; [63]), human transgenic Aβ1-42 was assayed in brain homogenates using an ELISA kit (WACO). For the rat and mouse experiments illustrated in Figures 7 and 8, brain samples were prepared by solid phase extraction, and endogenous rat brain Aβ1-42 and Aβ1-40 were quantified by ELISA as previously described for wild type mice. For brain extracts made using solid phase extraction, calibration of Aβ was relative, based on the approximately linear response of the assay in the range tested. For brain extracts made in 0.2% diethylamine, Aβ1-42, Aβ1-40, Aβ1-38, and Aβ1-37 concentrations in brain and cell culture samples were determined by fitting the results of immunoassays against calibration curves derived from a range of dilutions of the corresponding synthetic peptides on each assay plate using a quadratic curve fit (Graphpad Prizm 5.0). Aβ1-x was calibrated in the same way against synthetic Aβ1-40 peptide. Results were expressed in units of pM, corrected for sample dilution.
# Figure 7 BMS-869780 dose response and evaluation of residual Aβ levels in rat brain. (a) Groups of rats received intraperitoneal (IP) injections of vehicle or BMS-869780 at doses of 100, 30, 10, 3, 1, and 0.3 mg/kg. Additional rats were dosed with GSI BMS-698861 at 30 mg/kg as a positive control for Aβ-lowering. Group sizes were seven rats for each dose of BMS-869780 and 14 rats for vehicle and GSI dose groups. Brain and plasma were harvested 5 hours after dosing. Brain Aβ1-42 (green), brain Aβ1-40 (blue), brain Aβ1-x (black), and plasma Aβ1-40 (red) were determined. Values are expressed as % relative to vehicle group mean. Whiskers represent standard error. ⊗Aβ1-x was not determined in the groups dosed at 3, 1, and 0.3 mg/kg. (b) Brain Aβ1-40 was plotted against brain Aβ1-42 for each rat dosed with BMS-869780 (black ▼) and for each rat dosed with vehicle (grey ●). Values are expressed as % relative to vehicle group mean. Whiskers represent standard error. […]
# [1] = 3 mg/kg IP, 5 hours after dosing
smiles,measurement,setting,value
COc1cc(Nc2nc3n(n2)CCCC[C@H]3c2ccc(F)cc2)ccc1-n1cnc(Cl)c1 [BMS-869780],plasma Aβ1-40 lowering,"0.3 mg/kg IP, 5 hours after dosing",ca. 50%
same,brain Aβ1-40 lowering,[1],ca. 50%
same,brain Aβ1-42 lowering,[1],ca. 50%
same,residual Aβ1-40 assay signal at high plasma concentrations (best fit curve),% relative to vehicle,11%
same,residual Aβ1-42 assay signal at high plasma concentrations (best fit curve),% relative to vehicle,29%
same,IC50,"ip, four-parameter fit, 95% confidence interval 44–158 nM, read-out: apparent IC50 (plasma concentration) for plasma Aβ1-40",84 nM
same,IC50,"ip, four-parameter fit, 95% confidence interval 618–1053 nM, read-out: apparent IC50 (plasma concentration) for brain Aβ1-42",807 nM
same,IC50,"ip, four-parameter fit, 95% confidence interval 704–1264 nM, read-out: apparent IC50 (plasma concentration) for brain Aβ1-40",943 nM
same,IC50,"IP, 5 hours, read-out: concentration in plasma associated with 50% lowering of brain Aβ1-42",~1000 nM
same,brain Aβ1-x levels,"highest three doses (10, 30, 100 mg/kg IP), 5 hours",not affected
same,lowering of brain Aβ1-42 and Aβ1-40,in mice and rats,≥ 75%
